Experimental data taken from patent US20080050398A1, “Composition Comprising Beta-Defensin 2” (priority 2005, published 2008).
No end group written: not given here.

How the values were obtained:
corolase = test: Compatibility of surfactants with enzymes: remaining enzyme activity; type: biochemical; details: 1% SDS, within 15 minutes
Description: (§1) In selection of suitable surfactants, one must make sure that they are compatible with the enzymes used. It is preferable that the enzyme activity not decrease more than 50%, particularly not more than 30%, during a typical average working time of 15 minutes. Thus, tests have shown that sodium dodecyl sulfate (SDS), which is known to be a denaturant, reduces the activity of corolase to less than 30% within 15 minutes, even at a concentration of 1%, while the activity of xylanase decreases to less than 40% with only 0.1% SDS, so that surfactant is not preferred for use in the cleaning agents according to the invention. If that surfactant, or one with similar action, must nevertheless be used, one should preferably make sure of spatial separation during storage, such as by encapsulating the enzyme or by use of a multichamber bottle so that the enzyme and surfactant come into contact with each other only immediately before or during use. Alkyl polyglycosides, on the other hand, are well suited for use in enzyme-containing agents according to this invention. For instance, the activity of corolase remains clearly over 50% even with 3% APG 600, while xylanase actually experiences an increase in activity from the use of APG 600 (more than 150% activity with 0.1% surfactant) and still has more than 80% activity with 3% APG.

xylanase = test: as above; type: biochemical; details: 0.1% SDS
Description: as §1

Propionibacterium acnes = test: Inhibition of skin microorganisms by human β-defensin 2: CFU count, reduction factor vs control; type: cell-based; details: P. acnes; for inhibition of the microorganism (in words): harmful organism; for logarithmic decrease in the cell number (RF): 35.7 μg/ml, compared with the control
Description: (§2) Staphylococcus epidermidis and bacillus lichenformis were grown in LB medium under aerobic conditions at 37° C. Propionibacterium acnes was grown in TBST medium under anaerobic conditions at 37° C. The concentration of human β-defensin 2 was 35.7 μg/ml. Procedure: 18-hour cultures (S. epidermidis and B. lichenformis) or 5-day cultures (P. acnes) in LB or TBST liquid media; Measurement of the cultures at A620 nm; Adjustment in PBS [phosphate-buffered saline] to the proper A620 nm for 10^6 CFU/ml of the test strain; Microbial content checked with a dilution series in MTP brief procedure and plating; Make up stock solution of the ingredient AWK in PBS; Put 10 μl aliquots of the test strain suspension in the PCR tubes provided for AWK and control; Add to each 10 μl aliquots of AWK or PBS; Incubate aerobically at 37° C.; Determine the microbial content of the suspensions after 8 and 24 hours, with a dilution series in the MTP brief procedure and plating; Incubation of the agar plates under proper conditions for the strain; Evaluation, by visual check of the cultured agar plates, 8 or 24 hours after the start of the test; determination of the CFU and calculation of the reduction factors.

[1] = tested on: Staphylococcus epidermidis; test: as above; type: cell-based; details: S. epidermidis; for inhibition of the microorganism (in words): useful skin microorganism; for logarithmic decrease in the cell number (RF): 35.7 μg/ml, compared with the control
Description: as §2

bacillus lichenformis = test: as above; type: cell-based; details: B. lichenformis; for inhibition of the microorganism (in words): useful skin microorganism; for logarithmic decrease in the cell number (RF): 35.7 μg/ml, compared with the control
Description: as §2

Row | activity of corolase (corolase) | activity of xylanase (xylanase) | Compound | inhibition of the microorganism (in words) (Propionibacterium acnes; listed as human β-defensin 2) | inhibition of the microorganism (in words) (Propionibacterium acnes; listed as β-defensin 2) | logarithmic decrease in the cell number (RF) (Propionibacterium acnes; exposure time 8 hr) | logarithmic decrease in the cell number (RF) (Propionibacterium acnes; exposure time 24 hr) | inhibition of the microorganism (in words) ([1]; listed as human β-defensin 2) | inhibition of the microorganism (in words) ([1]; listed as β-defensin 2) | logarithmic decrease in the cell number (RF) ([1]; exposure time 8 hr) | logarithmic decrease in the cell number (RF) ([1]; exposure time 24 hr) | inhibition of the microorganism (in words) (bacillus lichenformis; listed as human β-defensin 2) | inhibition of the microorganism (in words) (bacillus lichenformis; listed as β-defensin 2) | logarithmic decrease in the cell number (RF) (bacillus lichenformis; exposure time 8 hr) | logarithmic decrease in the cell number (RF) (bacillus lichenformis; exposure time 24 hr)
1 | less than 30% | less than 40% | CCCCCCCCCCCCOS(=O)(=O)[O-].[Na+] [SDS, sodium dodecyl sulfate] | – | – | – | – | – | – | – | – | – | – | – | –
2 | – | – | human β-defensin 2 (GIGDPVTCLKSGAICHPVFCPRRYKQIGGCGLPGTKCCKKP; ends and bridges not checked; cysteine pairing not given here) [used as hBD2 (Sigma) in the formulations] | good inhibition | distinctly more strongly inhibited | 0.9586 | 1.833 | only slight inhibition | only a slight inhibitory effect | 0.1963 | 0.09922 | only slight inhibition | only a slight inhibitory effect | 0.09275 | 0.3716
